According to patent US7033765B1, “Site-specific drug delivery” (Toronto Research Chemicals, Inc., priority 1997, dated 2006):

Experiments:
Na+ channel proteins = assay: Whole-cell Na+ current recordings with site-specific agents (channel type not stated); type: cell-based; conditions: for slow component of recovery from inactivation in modified channels: FIG. 8B
Method: (§1) For oocyte recordings, whole-cell currents were recorded at room temperature (approximately 23° C.) using a two-electrode voltage-clamp with 3 M KCl in the pipette and a bath solution containing: 96 mM NaCl, 4 mM KCl, 1 mM MgCl2, 1 mM CaCl2 and 10 mM HEPES (pH=7.6). Electrode pipettes were fabricated from 1.2 mm outer diameter thin-walled borosilicate glass (TW120F-6, World Precision Instruments Inc., Sarasota, Fla.) pulled on a Sutter puller (model P-87). Pipette tips were broken to a diameter of approximately 0.1 mm and plugged with agar made with 3 M KCl for a final resistance of 1-4 MΩ. The circuitry of the amplifier compensated for electrode series resistance (Oocyte Clamp OC-725A, Warner Instruments Inc., Hampden, Conn., USA). Leak subtraction was accomplished using a P/8 protocol from a holding potential of −120 mV. Current was filtered at 2 kHz and digitized at 10 kHz using an IBM-compatible computer, a Warner analog-digital interface (model PP-50 Lab 1), and custom acquisition software. In order to minimize difficulties associated with voltage-clamping oocytes expressing large numbers of channel proteins, whole-cell recordings were limited to oocytes expressing less than 5 μAmps of peak current.
(§2) The desired concentrations of local channel protein anesthetic drugs in ND96 were introduced to the bath by perfusion with at least 30 mL (bath volume=0.6 mL). Total bath exchange took less than 3 minutes and the drugs were allowed to equilibrate with the oocytes for a minimum of 6 minutes prior to recording.
(§3) Current-voltage relationships were produced by stepping the membrane potential from −60 to +50 mV by increments of 5 mV from a holding potential of −80 mV. A repetition frequency of 0.2 Hz was used for such voltage families. Steady-state activation curves of whole-cell currents were calculated from the current-voltage relationships by scaling the peak currents by the net driving force (i.e., V−Erev) using the equation g=I/(V−Erev) where Erev=+45 to +60 mV. Steady-state fast-inactivation curves were constructed by normalizing the current recorded in test pulses to −10 mV following 50 msec prepulses to voltages ranging from −100 to −10 mV. A repetition frequency of 0.2 Hz was used for the steady-state inactivation protocol. Recovery from inactivation was assessed using a two-pulse protocol, in which identical depolarizing voltage pulses to −20 mV for 50 msec were applied to oocytes before (conditioning) and after (test) a variable duration repolarization to −80 mV (recovery potential). The peak current evoked by the second (test) depolarization was normalized to the amplitude of the first (conditioning) depolarization and represents the fraction of channel proteins that had recovered from inactivation during the interpulse recovery period.
(§4) Preliminary studies have been performed on four prototypes of the drug illustrated in FIG. 3. Studies using these drugs were performed on three distinct types of Na^+ channel proteins: skeletal muscle Na^+ channel proteins expressed in Xenopus sp. oocytes, native heart Na^+ channel proteins in isolated rat ventricular myocytes and mutated skeletal muscle Na^+ channel proteins (i.e., Y401C) in which the naturally occurring tyrosine at position 401 was replaced with cysteine, the residue naturally found in heart. Native heart Na^+ channel proteins and Y401C channel proteins are referred to as “heart-like” Na^+ channel proteins.

[1] = molecular target: T1, Y401C Na+ channels (mutated rat skeletal muscle sodium channel protein μ1-2) (Rattus norvegicus, UniProt P15390, Y401C); assay: Two-electrode voltage-clamp of Y401C Na+ channels expressed in Xenopus oocytes; type: cell-based
T1 construct: expressed in transfected cells; host or cells: Xenopus laevis oocytes (injected)

HH1 Na+ channels = molecular target: T2, HH1 Na+ channels (Homo sapiens, UniProt Q14524); assay: Two-electrode voltage-clamp of HH1 Na+ channels recorded in oocytes; type: cell-based
T2 construct: expressed in transfected cells; host or cells: Xenopus laevis oocytes (injected)
Method: (§5) Oocytes were removed from adult female Xenopus.laevis frogs (NASCO, Fort Atkinson, Wis.; XENOPUS, Ann Arbor, Mich.) that had been anesthetized by immersion for 10-25 minutes in a 0.25% solution of tricaine (Sigma Chemical Co., St. Louis, Mo.) in tap water. A 5-fold excess of Na^+ channel protein β subunits compared to α subunits minimized the altered gating properties of Na^+ channel proteins in oocytes. Injected oocytes were incubated at 22° C. for 24-48 hr prior to recording.
as §1, §2, §3

[2] = molecular target: T3, native heart Na+ channel proteins (Rattus norvegicus, UniProt P15389); assay: Patch-clamp recording of native heart Na+ channels in isolated rat ventricular myocytes; type: cell-based
T3 construct: native heart Na^+ channel proteins in isolated rat ventricular myocytes; endogenous in cells; host or cells: isolated rat ventricular myocytes
Method: Similar recording methods were used with isolated rat ventricular myocytes using the patch-clamp recording technique.
as §4

cardiac Na+ channels = assay: DTT and Cd2+ test of C2 anchoring to the pore cysteine; type: cell-based
Excerpt: To determine the role of the cysteine in the pore of cardiac Na^+ channel proteins, effects of C2 on Na^+ channel proteins were examined in the presence of Cd^2+ and dithiothreitol (DTT). […] Thus, it appears that C2 is linked to the Na^+ channel protein via a disulfide bond.
Cd^2+ binds with very high affinity to free sulfhydryls but not disulfide linked sulfhydryls. To determine whether the cysteines are binding to the drug, after washout of the C2 from Na^+ channel proteins channel proteins, Cd^2+ was added. […] Following DTT application, C2 modified channel proteins restore their sensitivity to Cd^2+ and this restoration occurs simultaneous with the reversal of the local anesthetic effects.

[3] = molecular target: T4, skeletal muscle (rSkM1) Na+ channels (Rattus norvegicus, UniProt P15390); assay: Two-electrode voltage-clamp of skeletal muscle (rSkM1) Na+ channels recorded in oocytes; type: cell-based
T4 construct: expressed in transfected cells; host or cells: Xenopus oocytes (injected)
Method: as §5
For oocyte recordings, whole-cell currents were recorded at room temperature (approximately 23° C.) using a two-electrode voltage-clamp with 3 M KCl in the pipette and a bath solution containing: 96 mM NaCl, 4 mM KCl, 1 mM MgCl2, 1 mM CaCl2 and 10 mM HEPES (pH=7.6). Electrode pipettes were fabricated from 1.2 mm outer diameter thin-walled borosilicate glass (TW120F-6, World Precision Instruments Inc., Sarasota, Fla.) pulled on a Sutter puller (model P-87). Pipette tips were broken to a diameter of approximately 0.1 mm and plugged with agar made with 3 M KCl for a final resistance of 1-4 MΩ. The circuitry of the amplifier compensated for electrode series resistance (Oocyte Clamp OC-725A, Warner Instruments Inc., Hampden, Conn., USA). […]
as §3, with “A repetition frequency of 0.2 Hz was used for such voltage families.” left out, “A repetition frequency of 0.2 Hz was used for the steady-state inactivation protocol.” left out, “The peak current evoked by the second (test) depolarization was normalized to the amplitude of the first (conditioning) depolarization and represents the fraction of channel proteins that had recovered from inactivation during the interpulse recovery period.” left out

[4] = repetitive depolarization to −10 mV at 10 Hz, 30 μM lidocaine
[5] = with 30 μM lidocaine, Y401C channels
[6] = with 30 μM lidocaine, HH1 channels
[7] = during application of 500 μM C2

T1 sequence (P15390 whole entry Y401C): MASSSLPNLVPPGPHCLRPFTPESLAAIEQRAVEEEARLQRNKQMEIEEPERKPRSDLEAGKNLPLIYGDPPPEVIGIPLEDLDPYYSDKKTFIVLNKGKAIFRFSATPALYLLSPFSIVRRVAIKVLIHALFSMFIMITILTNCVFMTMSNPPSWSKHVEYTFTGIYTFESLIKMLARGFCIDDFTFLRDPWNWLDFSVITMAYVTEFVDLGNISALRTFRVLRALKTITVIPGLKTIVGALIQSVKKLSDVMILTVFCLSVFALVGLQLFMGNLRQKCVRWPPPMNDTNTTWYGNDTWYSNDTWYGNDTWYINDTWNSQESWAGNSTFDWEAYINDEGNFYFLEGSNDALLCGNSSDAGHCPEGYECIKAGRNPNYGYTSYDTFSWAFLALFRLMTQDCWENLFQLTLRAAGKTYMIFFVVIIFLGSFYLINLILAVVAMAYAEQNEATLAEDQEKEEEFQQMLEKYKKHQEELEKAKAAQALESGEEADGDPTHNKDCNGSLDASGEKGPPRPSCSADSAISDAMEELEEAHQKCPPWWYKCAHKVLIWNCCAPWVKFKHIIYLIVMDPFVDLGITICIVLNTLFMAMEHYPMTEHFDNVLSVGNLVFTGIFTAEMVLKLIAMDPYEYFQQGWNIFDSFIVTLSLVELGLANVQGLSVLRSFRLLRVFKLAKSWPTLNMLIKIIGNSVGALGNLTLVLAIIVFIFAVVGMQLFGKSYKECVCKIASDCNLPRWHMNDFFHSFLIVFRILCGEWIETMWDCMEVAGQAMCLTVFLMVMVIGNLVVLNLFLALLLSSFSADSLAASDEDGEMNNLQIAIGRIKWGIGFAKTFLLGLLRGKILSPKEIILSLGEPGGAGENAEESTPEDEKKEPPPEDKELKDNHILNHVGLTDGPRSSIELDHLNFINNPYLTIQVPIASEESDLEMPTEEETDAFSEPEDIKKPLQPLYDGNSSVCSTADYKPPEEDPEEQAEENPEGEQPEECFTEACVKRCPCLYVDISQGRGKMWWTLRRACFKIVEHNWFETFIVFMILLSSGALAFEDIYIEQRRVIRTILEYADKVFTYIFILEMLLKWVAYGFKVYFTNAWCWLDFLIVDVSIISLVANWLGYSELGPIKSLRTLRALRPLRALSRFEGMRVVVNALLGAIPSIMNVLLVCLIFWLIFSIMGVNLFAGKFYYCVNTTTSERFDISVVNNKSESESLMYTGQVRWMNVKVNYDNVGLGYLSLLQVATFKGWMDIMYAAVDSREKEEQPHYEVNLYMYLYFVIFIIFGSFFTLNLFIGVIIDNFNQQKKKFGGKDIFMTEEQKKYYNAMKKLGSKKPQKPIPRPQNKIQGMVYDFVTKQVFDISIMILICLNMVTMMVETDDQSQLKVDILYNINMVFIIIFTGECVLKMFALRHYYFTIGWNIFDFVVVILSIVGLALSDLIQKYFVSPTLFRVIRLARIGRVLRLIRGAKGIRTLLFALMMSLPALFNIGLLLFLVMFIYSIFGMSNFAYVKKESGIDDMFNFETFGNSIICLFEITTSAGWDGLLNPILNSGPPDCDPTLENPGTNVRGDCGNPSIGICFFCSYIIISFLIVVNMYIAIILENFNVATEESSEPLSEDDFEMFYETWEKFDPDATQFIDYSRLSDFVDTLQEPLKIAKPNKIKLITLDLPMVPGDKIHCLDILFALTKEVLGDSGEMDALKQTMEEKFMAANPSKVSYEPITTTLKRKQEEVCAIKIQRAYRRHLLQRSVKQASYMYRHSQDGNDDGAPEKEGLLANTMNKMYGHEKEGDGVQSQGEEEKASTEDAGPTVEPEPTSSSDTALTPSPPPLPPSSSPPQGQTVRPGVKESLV
T1 sequence (Q00954 19-218 partner): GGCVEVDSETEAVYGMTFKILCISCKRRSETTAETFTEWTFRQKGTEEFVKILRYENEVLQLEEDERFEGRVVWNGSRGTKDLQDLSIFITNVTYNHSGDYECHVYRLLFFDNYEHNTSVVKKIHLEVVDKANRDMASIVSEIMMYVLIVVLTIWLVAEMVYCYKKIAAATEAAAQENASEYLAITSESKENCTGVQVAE
T2 sequence (Q14524 whole entry): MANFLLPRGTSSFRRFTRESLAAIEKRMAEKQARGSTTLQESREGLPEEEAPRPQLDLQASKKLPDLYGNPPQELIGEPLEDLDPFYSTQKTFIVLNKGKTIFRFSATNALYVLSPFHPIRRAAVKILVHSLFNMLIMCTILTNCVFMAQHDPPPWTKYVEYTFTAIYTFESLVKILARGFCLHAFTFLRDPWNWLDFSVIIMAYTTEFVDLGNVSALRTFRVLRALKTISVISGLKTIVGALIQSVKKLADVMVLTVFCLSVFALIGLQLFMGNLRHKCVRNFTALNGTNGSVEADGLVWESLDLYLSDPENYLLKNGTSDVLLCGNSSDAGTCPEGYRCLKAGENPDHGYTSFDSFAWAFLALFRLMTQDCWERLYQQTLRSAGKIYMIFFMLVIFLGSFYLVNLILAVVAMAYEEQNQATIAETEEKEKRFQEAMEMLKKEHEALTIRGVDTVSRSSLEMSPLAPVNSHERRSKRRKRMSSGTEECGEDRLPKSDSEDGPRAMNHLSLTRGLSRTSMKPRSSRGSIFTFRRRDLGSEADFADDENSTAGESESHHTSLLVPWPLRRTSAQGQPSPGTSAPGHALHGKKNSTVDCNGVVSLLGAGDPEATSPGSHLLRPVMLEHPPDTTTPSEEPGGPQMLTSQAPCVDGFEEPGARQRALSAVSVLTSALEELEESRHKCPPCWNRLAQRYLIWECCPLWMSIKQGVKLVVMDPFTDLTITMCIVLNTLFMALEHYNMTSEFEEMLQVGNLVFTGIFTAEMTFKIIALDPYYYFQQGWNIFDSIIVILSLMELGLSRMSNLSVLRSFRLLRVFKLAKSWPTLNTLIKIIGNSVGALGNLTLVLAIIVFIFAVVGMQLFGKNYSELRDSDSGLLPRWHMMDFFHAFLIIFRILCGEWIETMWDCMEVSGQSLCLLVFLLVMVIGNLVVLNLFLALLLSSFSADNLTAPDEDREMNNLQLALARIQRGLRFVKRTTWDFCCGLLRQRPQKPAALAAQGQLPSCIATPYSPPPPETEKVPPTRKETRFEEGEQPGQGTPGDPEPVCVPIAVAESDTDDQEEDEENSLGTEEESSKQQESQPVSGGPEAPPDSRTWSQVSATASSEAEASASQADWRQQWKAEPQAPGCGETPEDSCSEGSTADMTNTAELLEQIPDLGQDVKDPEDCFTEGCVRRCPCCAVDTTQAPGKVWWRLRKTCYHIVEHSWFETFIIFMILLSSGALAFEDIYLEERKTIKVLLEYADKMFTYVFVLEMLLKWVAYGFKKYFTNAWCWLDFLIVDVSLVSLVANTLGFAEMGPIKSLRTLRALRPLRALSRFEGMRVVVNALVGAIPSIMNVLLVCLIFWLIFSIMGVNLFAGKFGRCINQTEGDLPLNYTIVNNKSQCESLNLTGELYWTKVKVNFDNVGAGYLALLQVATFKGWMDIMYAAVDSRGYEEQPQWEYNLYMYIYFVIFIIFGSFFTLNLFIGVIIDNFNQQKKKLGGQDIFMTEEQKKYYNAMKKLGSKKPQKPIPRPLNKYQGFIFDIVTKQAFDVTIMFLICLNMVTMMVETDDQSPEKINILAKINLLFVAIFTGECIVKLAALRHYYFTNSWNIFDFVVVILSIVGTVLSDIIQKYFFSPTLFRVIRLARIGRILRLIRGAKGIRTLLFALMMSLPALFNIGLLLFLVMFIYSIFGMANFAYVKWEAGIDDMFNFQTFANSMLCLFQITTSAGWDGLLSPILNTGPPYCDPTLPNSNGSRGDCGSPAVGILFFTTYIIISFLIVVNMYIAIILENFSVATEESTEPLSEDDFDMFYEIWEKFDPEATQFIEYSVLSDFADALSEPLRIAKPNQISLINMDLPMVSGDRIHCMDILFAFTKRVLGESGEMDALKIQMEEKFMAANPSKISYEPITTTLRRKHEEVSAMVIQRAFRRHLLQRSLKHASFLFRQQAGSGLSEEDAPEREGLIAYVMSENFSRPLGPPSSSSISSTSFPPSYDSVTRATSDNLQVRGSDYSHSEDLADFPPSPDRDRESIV
T4 sequence (P15390 whole entry): as the sequence (P15390 whole entry Y401C) above, with C401Y counted along it
T4 sequence (Q00954 19-218 partner): as the sequence (Q00954 19-218 partner) above

In the case of `CS(=O)(=O)SCCCCCCOC(=O)c1ccc(N)cc1` [Formula C6, 8-(4-aminophenyl)-8-oxo-7-oxaoctyl methanethiosulfonate], the “potency relative to C2” value (Na+ channel proteins) is reported as “far more potent than C2” and the melting point is reported as 85 to 86 °C.
In the case of `CCOC(=O)c1ccc(N)cc1` [benzocaine, reference compound], the “slow component of recovery from inactivation in modified channels” value (Na+ channel proteins) is reported as “not observed”.
With `CCN(CC)CC(=O)Nc1c(C)cccc1C` [lidocaine, reference compound] the use-dependent block [1, 4] was “use-dependent block”, the “tfast, first rapid phase of recovery from inactivation” value [1, 5] was 5.0 ms and the “tslow, second slow component of recovery from inactivation” value [1, 5] was 365 ms. The use-dependent block (HH1 Na+ channels; [4]) was “use-dependent block”, the “tfast, first rapid phase of recovery from inactivation” value (HH1 Na+ channels; [6]) was 16.11 ms and the “tslow, second slow component of recovery from inactivation” value (HH1 Na+ channels; [6]) was 763 ms.
With `CS(=O)(=O)SCCOC(=O)c1ccc(N)cc1` [Formula C2, 4-(4-aminophenyl)-4-oxo-3-oxabutyl methanethiosulfonate] the “reversibility of effects on washout” value ([1]; Y401C channels) was “inability to wash out”, the “time constant for recovery from inactivation” value (shortened to “time constant for recovery”) ([1]; after C2 application (washout)) was 40.4 ms and the “time constant for recovery” value [1, 7] was 39.0 ms. For the same compound, the “reversibility of binding on washout” value [2] was “irreversible”, the “reversal of the current decrease by DTT” value (cardiac Na+ channels; 10 mM DTT after C2 washout) was “completely reversed” and the “block of Na+ current by μM Cd2+ after washout of the agent” value (cardiac Na+ channels; Cd2+ added after C2 washout) was “no longer blocked”. For the same compound, the “change of whole-cell currents” value (cardiac Na+ channels; following C2 washout (FIG. 7A)) was “decreased”, the “effect of DTT on the irreversible binding after washout” value (cardiac Na+ channels; presence of DTT) was “totally inhibited” and the “time constant for recovery” value ([3]; after C2 washout) was 13.7 ms. For the same compound, the “time constant for recovery” value ([3]; in the presence of 500 μM C2) was 56.7 ms, the reversibility on washout ([3]; skeletal tissue) was “washed out” and the “use-dependence of Na+ channel current inhibition” value (Na+ channel proteins) was “very little use-dependent block”. The recovery from inactivation (Na+ channel proteins; 100 μM to 1 mM) was “slowing”, the steady-state inactivation curve (Na+ channel proteins; 100 μM to 1 mM) was “leftward shifts” and the “whole-cell Na+ current” value (Na+ channel proteins; 100 μM to 1 mM) was “decreases”. The “whole-cell Na+ current decay following channel activation” value (Na+ channel proteins; 100 μM to 1 mM) was “enhanced rates”, the “shift of the sensitivity of the channels to block by lidocaine” value (Na+ channel proteins; C2 anchoring, FIG. 9) was “nearly two orders of magnitude” and the “slow component of recovery from inactivation in modified channels” value (Na+ channel proteins) was “not observed”. The “time constant for recovery” value (HH1 Na+ channels; after the application of C2 (washout)) was 66 ms, the “time constant for recovery” value (HH1 Na+ channels; [7]) was 45 ms and the melting point was 112 to 113 °C.
For `Cc1cccc(C)c1NC(=O)CNCCSS(C)(=O)=O` [Formula T2, 1-(2,6-dimethylphenyl)-2,8,8-trioxo-1,4-diaza-7,8-dithianonane], the “use-dependence of Na+ channel current inhibition” value (Na+ channel proteins) was “use-dependent”.
For `CS(=O)(=O)SCCCCCCCCCCOC(=O)c1ccc(N)cc1` [Formula C10, 12-(4-aminophenyl)-12-oxo-11-oxadodecyl methanethiosulfonate], the melting point was 73 to 74 °C.
